In the case of `CS(=O)(=O)CCOCCn1cnc2c(N)nc3ccccc3c21` [Example 3, 1-{2-[2-(Methylsulfonyl)ethoxy]ethyl}-1H-imidazo[4,5-c]quinolin-4-amine], the melting point was in the range of 145 to 148 °C. Compound `CCc1nc2c(N)nc3ccccc3c2n1CC(C)(C)OCCS(C)(=O)=O` [Example 36, 2-Ethyl-1-{2-methyl-2-[2-(methylsulfonyl)ethoxy]propyl}-1H-imidazo[4,5-c]quinolin-4-amine] came in with a melting point of 206 to 209 °C.

Compound `Cc1nc2c(N)nc3c(c2n1CC(C)(C)OCCS(C)(=O)=O)CCCC3` [Example 30, 2-Methyl-1-{2-methyl-2-[2-(methylsulfonyl)ethoxy]propyl}-6,7,8,9-tetrahydro-1H-imidazo[4,5-c]quinolin-4-amine] gave a melting point of 226 to 229 °C. `CCCCc1nc2c(N)nc3c(c2n1CC(C)(C)OCCS(C)(=O)=O)CCCC3` [Example 33, 2-Butyl-1-{2-methyl-2-[2-(methylsulfonyl)ethoxy]propyl}-6,7,8,9-tetrahydro-1H-imidazo[4,5-c]quinolin-4-amine] yielded a melting point of 146 to 148 °C.

`CCCc1nc2c(N)nc3c(c2n1CC(C)(C)OCCS(C)(=O)=O)CCCC3` [Example 35, 1-{2-Methyl-2-[2-(methylsulfonyl)ethoxy]propyl}-2-propyl-6,7,8,9-tetrahydro-1H-imidazo[4,5-c]quinolin-4-amine]: the melting point is 188 to 190 °C. Next, `CCCc1nc2c(N)nc3ccccc3c2n1CCOCCCSC` [Example 17, 1-{2-[3-(Methylthio)propoxy]ethyl}-2-propyl-1H-imidazo[4,5-c]quinolin-4-amine]: 99 to 101 °C.

Compound `CCCc1nc2c(N)nc3ccccc3c2n1CCOCCCS(=O)(=O)C(C)C` [Example 14, 1-(2-{3-[(1-Methylethyl)sulfonyl]propoxy}ethyl)-2-propyl-1H-imidazo[4,5-c]quinolin-4-amine] returned a melting point of 176 to 177 °C.

For the compound `CCCc1nc2c(N)nc3ccccc3c2n1CCOCCS(C)(=O)=O` [Example 4, 1-{2-[2-(Methylsulfonyl)ethoxy]ethyl}-2-propyl-1H-imidazo[4,5-c]quinolin-4-amine], the melting point is 150 to 152 °C. Compound `CCCCCCc1nc2c(N)nc3ccccc3c2n1CCOCCS(C)(=O)=O` [Example 25, 2-Hexyl-1-{2-[2-(methylsulfonyl)ethoxy]ethyl}-1H-imidazo[4,5-c]quinolin-4-amine] displayed a melting point of 158 to 160 °C. To `CCOCc1nc2c(N)nc3ccccc3c2n1CC1(OCCS(C)(=O)=O)CCCCC1` [Example 24, 2-(Ethoxymethyl)-1-({1-[2-(methylsulfonyl)ethoxy]cyclohexyl}methyl)-1H-imidazo[4,5-c]quinolin-4-amine] belongs 159 to 161 °C; to `CCc1nc2c(N)nc3c(c2n1CC(C)(C)OCCS(C)(=O)=O)CCCC3` [Example 37, 2-Ethyl-1-{2-methyl-2-[2-(methylsulfonyl)ethoxy]propyl}-6,7,8,9-tetrahydro-1H-imidazo[4,5-c]quinolin-4-amine], 225 to 227 °C.

Take `CC(C)(Cn1cnc2c(N)nc3ccccc3c21)OCCS(C)(=O)=O` [Example 29, 1-{2-Methyl-2-[2-(methylsulfonyl)ethoxy]propyl}-1H-imidazo[4,5-c]quinolin-4-amine]: the melting point fell in the range of 261 to 264 °C. Next, `CCOCc1nc2c(N)nc3ccccc3c2n1CC1(OCCS(C)(=O)=O)CC1` [Example 34, 2-(Ethoxymethyl)-1-({1-[2-(methylsulfonyl)ethoxy]cyclopropyl}methyl)-1H-imidazo[4,5-c]quinolin-4-amine]: 169 to 171 °C; `COCc1nc2c(N)nc3c(c2n1CC(C)(C)OCCS(C)(=O)=O)CCCC3` [Example 39, 2-(Methoxymethyl)-1-{2-methyl-2-[2-(methylsulfonyl)ethoxy]propyl}-6,7,8,9-tetrahydro-1H-imidazo[4,5-c]quinolin-4-amine]: 195 to 197 °C. Regarding `COCCc1nc2c(N)nc3ccccc3c2n1CCOCCS(C)(=O)=O` [Example 7, 2-(2-Methoxyethyl)-1-{2-[2-(methylsulfonyl)ethoxy]ethyl}-1H-imidazo[4,5-c]quinolin-4-amine], the melting point is 142 to 144 °C.

The compound `CCCCc1nc2c(N)nc3ccccc3c2n1CC(C)(C)OCCS(C)(=O)=O` [Example 32, 2-Butyl-1-{2-methyl-2-[2-(methylsulfonyl)ethoxy]propyl}-1H-imidazo[4,5-c]quinolin-4-amine] displayed a melting point of 196 to 198 °C. The compound `CCCc1nc2c(N)nc3ccccc3c2n1CC(C)(C)OCCS(C)(=O)=O` [Example 22, 1-{2-Methyl-2-[2-(methylsulfonyl)ethoxy]propyl}-2-propyl-1H-imidazo[4,5-c]quinolin-4-amine] came in with a melting point of 203 to 206 °C. On to `Cc1nc2c(N)nc3ccccc3c2n1CC(C)(C)OCCS(C)(=O)=O` [Example 21, 2-Methyl-1-{2-methyl-2-[2-(methylsulfonyl)ethoxy]propyl}-1H-imidazo[4,5-c]quinolin-4-amine], for which the melting point lay within 253 to 255 °C.

Take `CCOCc1nc2c(N)nc3c(c2n1CC(C)(C)OCCS(C)(=O)=O)CCCC3` [Example 28, 2-(Ethoxymethyl)-1-{2-methyl-2-[2-(methylsulfonyl)ethoxy]propyl}-6,7,8,9-tetrahydro-1H-imidazo[4,5-c]quinolin-4-amine]: the melting point lay in the range of 150 to 153 °C. The compound `CCc1nc2c(N)nc3c(c2n1CCOCCS(C)(=O)=O)CCCC3` [Example 12, 2-Ethyl-1-{2-[2-(methylsulfonyl)ethoxy]ethyl}-6,7,8,9-tetrahydro-1H-imidazo[4,5-c]quinolin-4-amine] yielded a melting point of 146 to 148 °C. To `COCc1nc2c(N)nc3ccccc3c2n1CC(C)(C)OCCS(C)(=O)=O` [Example 38, 2-(Methoxymethyl)-1-{2-methyl-2-[2-(methylsulfonyl)ethoxy]propyl}-1H-imidazo[4,5-c]quinolin-4-amine] belongs 186 to 189 °C; to `CCOCc1nc2c(N)nc3ccccc3c2n1CC1(OCCS(C)(=O)=O)CCC1` [Example 26, 2-(Ethoxymethyl)-1-({1-[2-(methylsulfonyl)ethoxy]cyclobutyl}methyl)-1H-imidazo[4,5-c]quinolin-4-amine], 221 to 223 °C.

Regarding `CCCCc1nc2c(N)nc3ccccc3c2n1CCOCCS(C)(=O)=O` [Example 2, 2-Butyl-1-{2-[2-(methylsulfonyl)ethoxy]ethyl}-1H-imidazo[4,5-c]quinolin-4-amine], the melting point was in the range of 168 to 170 °C. To `CCCc1nc2c(N)nc3ccccc3c2n1CCOCCCS(=O)(=O)c1ccccn1` [Example 16, 2-Propyl-1-(2-{3-[(pyridin-2-yl)sulfonyl]propoxy}ethyl)-1H-imidazo[4,5-c]quinolin-4-amine] belongs 150 to 151 °C. Compound `CCCCCCCCCCS(=O)(=O)CCCOCCn1c(CCC)nc2c(N)nc3ccccc3c21` [Example 20, 1-{2-[3-(Decane-1-sulfonyl)propoxy]ethyl}-2-propyl-1H-imidazo[4,5-c]quinolin-4-amine] displayed a melting point of 84 to 86 °C.

`CCOCc1nc2c(N)nc3ccccc3c2n1CCOCCS(C)(=O)=O` [Example 6, 2-(Ethoxymethyl)-1-{2-[2-(methylsulfonyl)ethoxy]ethyl}-1H-imidazo[4,5-c]quinolin-4-amine] came in with a melting point of 158 to 160 °C.

With `CCCc1nc2c(N)nc3ccccc3c2n1CCOCCC[S+](C)[O-]` (stereo not drawn) [Example 18], the melting point lay in the range of 148 to 151 °C. For the compound `Cc1nc2c(N)nc3ccccc3c2n1CCOCCS(C)(=O)=O` [Example 1, 2-Methyl-1-{2-[2-(methylsulfonyl)ethoxy]ethyl}-1H-imidazo[4,5-c]quinolin-4-amine], the melting point is 214 to 217 °C. In turn, `CCOCc1nc2c(N)nc3ccccc3c2n1CC1(OCCS(C)(=O)=O)CCCC1` [Example 23, 2-(Ethoxymethyl)-1-({1-[2-(methylsulfonyl)ethoxy]cyclopentyl}methyl)-1H-imidazo[4,5-c]quinolin-4-amine] came in with a melting point of 163 to 165 °C. Regarding `CC(C)(Cn1cnc2c(N)nc3c(c21)CCCC3)OCCS(C)(=O)=O` [Example 31, 1-{2-Methyl-2-[2-(methylsulfonyl)ethoxy]propyl}-6,7,8,9-tetrahydro-1H-imidazo[4,5-c]quinolin-4-amine], the melting point lay in the range of 219 to 223 °C.

`CCCc1nc2c(N)nc3c(c2n1CCOCCS(C)(=O)=O)CCCC3` [Example 11, 1-{2-[2-(Methylsulfonyl)ethoxy]ethyl}-2-propyl-6,7,8,9-tetrahydro-1H-imidazo[4,5-c]quinolin-4-amine] registered a melting point of 153 to 155 °C. `CCc1nc2c(N)nc3ccccc3c2n1CCOCCS(C)(=O)=O` [Example 5, 2-Ethyl-1-{2-[2-(methylsulfonyl)ethoxy]ethyl}-1H-imidazo[4,5-c]quinolin-4-amine] returned a melting point of 160 to 163 °C. To `CCCc1nc2c(N)nc3ccccc3c2n1CCOCCCS(=O)(=O)c1ccccc1C` [Example 15, 1-(2-{3-[(2-Methylphenyl)sulfonyl]propoxy}ethyl)-2-propyl-1H-imidazo[4,5-c]quinolin-4-amine] belongs 159 to 160 °C; to `CCOCc1nc2c(N)nc3c(c2n1CC1(OCCS(C)(=O)=O)CCC1)CCCC3` [Example 27, 2-(Ethoxymethyl)-1-({1-[2-(methylsulfonyl)ethoxy]cyclobutyl}methyl)-6,7,8,9-tetrahydro-1H-imidazo[4,5-c]quinolin-4-amine], 186 to 188 °C; to `CCOCc1nc2c(N)nc3cccnc3c2n1CC(C)(C)OCCS(C)(=O)=O` [Example 40, 2-Ethoxymethyl-1-{2-[2-(methylsulfonyl)ethoxy]-2-methylpropyl}-1H-imidazo[4,5-c][1,5]naphthyridin-4-amine], 189 to 191 °C. To `Cc1nc2c(N)nc3c(c2n1CCOCCS(C)(=O)=O)CCCC3` [Example 10, 1-{2-[2-(Methylsulfonyl)ethoxy]ethyl}-2-methyl-6,7,8,9-tetrahydro-1H-imidazo[4,5-c]quinolin-4-amine] belongs 173 to 175 °C.

Broadly, the melting point is the temperature of the solid-liquid transition.

The values are drawn from US7939526B2, “Sulfone substituted imidazo ring ethers” (3M Innovative Properties Company, priority 2003, dated 2011).
